Publication PMC8281983 (Journal of the American Chemical Society, 2021)

Biological target: T1, BRCA1-associated ATM activator 1 (BRAT1) (Homo sapiens, UniProt Q6PJG6)
T1 sequence (Q6PJG6 1-821): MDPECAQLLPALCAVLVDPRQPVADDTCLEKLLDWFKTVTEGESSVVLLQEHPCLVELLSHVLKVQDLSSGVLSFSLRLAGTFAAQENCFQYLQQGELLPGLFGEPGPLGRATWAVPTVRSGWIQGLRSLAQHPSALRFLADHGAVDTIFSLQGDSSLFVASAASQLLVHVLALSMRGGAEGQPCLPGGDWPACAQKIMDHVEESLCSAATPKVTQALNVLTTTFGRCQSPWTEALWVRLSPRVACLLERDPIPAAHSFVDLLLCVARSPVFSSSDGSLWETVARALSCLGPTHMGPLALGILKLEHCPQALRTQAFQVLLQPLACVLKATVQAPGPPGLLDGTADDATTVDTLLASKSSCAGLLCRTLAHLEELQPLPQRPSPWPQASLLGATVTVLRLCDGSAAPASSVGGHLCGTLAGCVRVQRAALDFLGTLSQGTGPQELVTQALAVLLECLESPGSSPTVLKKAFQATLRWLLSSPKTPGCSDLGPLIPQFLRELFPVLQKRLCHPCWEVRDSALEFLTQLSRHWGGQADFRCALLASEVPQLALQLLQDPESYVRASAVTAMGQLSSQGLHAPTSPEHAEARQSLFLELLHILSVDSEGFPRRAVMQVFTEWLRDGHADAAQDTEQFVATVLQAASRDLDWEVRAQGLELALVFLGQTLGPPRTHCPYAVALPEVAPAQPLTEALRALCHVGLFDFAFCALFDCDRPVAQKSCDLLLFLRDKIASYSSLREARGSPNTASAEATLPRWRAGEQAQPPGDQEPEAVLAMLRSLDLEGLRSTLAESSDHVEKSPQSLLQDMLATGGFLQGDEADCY
Assay type: cell-based

EC50: 2.7 µM
SMILES: C=C(C)C1CCC(=C)C2C3=C(C[C@@](C)(O)C3=O)C(=O)C(C)=C[C@@H]12 (stereo partly shown) [1d, curcusone D]
